# Source: patent US12180198B2, “Ribocil C antibiotics effective for Gram-negative pathogens” (THE BOARD OF TRUSTEES OF THE UNIVERSITY OF ILLINOIS, priority 2018, dated 2024)
# Assays:
# [1] = molecular target: E. coli FabI (Escherichia coli, UniProt P0AEK4); assay: In vitro FabI inhibition assay; type: biochemical; details: 20 nM enzyme
# Procedure: Expression and purification of E. coli FabI. E. coli BL21 (DE3) pLysS (Novagen) were transformed with pET15-ecFabI. Overnight culture (10 mL) in LB supplemented with 50 μg/mL ampicillin from single colony was diluted into 1 L LB+50 μg/mL ampicillin. Cells were grown at 37° C., 250 rpm until OD600 reached 0.8. Culture was cooled to 18° C. and induced with 0.5 mM IPTG for 18 h at 18° C. Cells were harvested by centrifugation (5,000×g, 10 min, 4° C.). Cell pellets were flash frozen and store at −20° C. pending purification. Frozen cell pellets were thawed on ice and resuspended (5 mL per gram wet pellet, typically 20-30 mL) with 0.5% CHAPS, 1 mM PMSF, 1 μg/mL leupeptin, 1 μg/mL pepstatin A, and 2 μg/mL aprotinin in binding buffer [20 mM Tris (pH 7.9), 500 mM NaCl, 5 mM imidazole]. Cells were lysed by sonication on ice (30%, 10 s pulse, 20 s rest, 5 min total). Lysate was clarified by centrifugation (35,000×g, 1 h, 4° C.) and filtration through 0.2 μm syringe filter. Lysate was incubated with 5 mL Co-NTA agarose (HisPur cobalt resin, Thermo-Fisher Scientific Cat #89965, pre-equilibrated with binding buffer) for 30 min at 4° C. with gentle rocking. Agarose-containing lysate was transferred to column and flow through discarded. Column was washed with 2 column volumes of binding buffer followed by 10 column volumes of wash buffer [20 mM Tris (pH 7.9), 500 mM NaCl, 60 mM imidazole]. Protein was eluted with 15 mL elution buffer [20 mM Tris (pH 7.9), 500 mM NaCl, 300 mM imidazole]. […] Protein concentration was determined by BCA assay (ThermoFisher Cat #23227).
# In vitro FabI inhibition assay. […] Plate was placed in plate-reader (SpectraMax 190, Molecular Devices) under temperature control (25° C.), and temperature was allowed to equilibrate. […] After shaking for 5 s, reaction progress was monitored by absorbance at 340 nm every 15 s for 90 min. Linear portion of reaction progress curve was fit using plate-reader software (SoftMax Pro 7.0). Percent activity was calculated relative to DMSO-only and no-enzyme controls in each plate. […]
# [2] = test system: Gram-negative ESKAPE pathogens and E. coli; assay: MIC, micro-dilution broth method (text summary); type: cell-based; details: Gram-negatives with intact outer membranes
# Procedure: FIG. 2. Antimicrobial activity of Debio-1452 and derivatives. MIC values were determined using the micro-dilution broth method as outlined by the Clinical and Laboratory Standards Institute (clsi.org/). All experiments were performed in biological triplicate.
# (§1) Antimicrobial susceptibility tests. Susceptibility testing was performed in biological triplicate, using the micro-dilution broth method as outlined by the Clinical and Laboratory Standards Institute. Bacteria were cultured with cation-adjusted Muller-Hinton broth (Sigma-Aldrich, Cat #90922) in round-bottom 96-well plates (Corning, Cat #3788). Human serum (pooled gender, 0.2 μm filtered) was purchased from BioIVT (Hicksville, NY).
# [3] = test system: K. pneumoniae S47889; assay: MIC, micro-dilution broth method; type: cell-based; details: Klebsiella pneumoniae; K. pneumoniae S47889; read-out: MIC
# Procedure: (§2) Compounds were evaluated against a panel of Gram-positive and Gram-negative organisms. MIC values were determined using the micro-dilution broth method as outlined by the Clinical and Laboratory Standards Institute (clsi.org/) and are listed in […]. All experiments were performed in biological triplicate.
# as §1
# [4] = test system: E. coli BAA-2340; assay: MIC, micro-dilution broth method; type: cell-based; details: Escherichia coli, BAA2340; E. coli BAA-2340; read-out: MIC
# Procedure: as §2, §1
# [5] = test system: P. aeruginosa PA01; assay: MIC, micro-dilution broth method; type: cell-based; details: Pseudomonas aeruginosa; P. aeruginosa PA01; read-out: MIC
# Procedure: as §2, §1
# [6] = test system: E. coli ΔrfaC JW3596; assay: MIC, micro-dilution broth method; type: cell-based; details: Escherichia coli
# Procedure: as §2, §1
# [7] = test system: E. coli AR-0493; assay: MIC, micro-dilution broth method; type: cell-based; details: Escherichia coli, AR0493; E. coli AR-0493; read-out: MIC
# Procedure: as §2, §1
# [8] = test system: A. baumannii W41979; assay: MIC, micro-dilution broth method; type: cell-based; details: Acinetobacter baumannii; A. baumannii W41979; read-out: MIC
# Procedure: as §2, §1
# [9] = test system: S. aureus ATCC 29213; assay: MIC, micro-dilution broth method; type: cell-based; details: Staphylococcus aureus, ATCC29213, S. aureus ATCC 29213; read-out: MIC
# Procedure: as §2, §1
# [10] = test system: E. coli MG1655; assay: MIC, micro-dilution broth method; type: cell-based; details: Escherichia coli; E. coli MG1655; read-out: MIC
# Procedure: as §2, §1
# [11] = test system: E. cloacae ATCC 29893; assay: MIC, micro-dilution broth method; type: cell-based; details: Enterobacter cloacae, ATCC29893; E. cloacae ATCC 29893; read-out: MIC
# Procedure: as §2, §1
# [12] = test system: E. coli ΔtolC JW5503; assay: MIC, micro-dilution broth method; type: cell-based; details: Escherichia coli
# Procedure: as §2, §1
# Chain of E. coli FabI (P0AEK4 whole entry): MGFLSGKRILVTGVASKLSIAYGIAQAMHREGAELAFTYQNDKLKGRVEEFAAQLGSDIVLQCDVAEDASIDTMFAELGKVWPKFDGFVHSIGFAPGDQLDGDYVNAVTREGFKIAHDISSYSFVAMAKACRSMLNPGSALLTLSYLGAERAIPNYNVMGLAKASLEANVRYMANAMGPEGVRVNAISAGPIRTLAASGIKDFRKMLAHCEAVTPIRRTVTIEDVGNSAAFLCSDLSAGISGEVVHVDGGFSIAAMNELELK
smiles,measurement,setting,value
"Cc1c(CN(C)C(=O)/C=C/c2cnc3c(c2)CC(NC(=O)OC(C)(C)C)C(=O)N3)oc2ccccc12 (stereo not drawn) [compound 8, tert-butyl(E)-(6-(3-(methyl((3-methylbenzofuran-2-yl)methyl)amino)-3-oxoprop-1-en-1-yl)-2-oxo-1,2,3,4-tetrahydro-1,8-naphthyridin-3-yl)carbamate]",inhibition of E. coli FabI in vitro (in words),[1],potent FabI inhibitors
same,activity (in words),[2],no activity
same,MIC,[3],> 32 µg/mL
same,MIC,[4],> 32 µg/mL
same,MIC,[5],> 32 µg/mL
same,MIC,[6],0.25 µg/mL
same,MIC,[7],> 32 µg/mL
same,MIC,[8],> 32 µg/mL
same,MIC,[9],0.016 µg/mL
same,MIC,[10],> 32 µg/mL
same,MIC,[11],> 32 µg/mL
same,MIC,[12],0.125 µg/mL
